“Also recorded” adds a separate entry of the source.
Key:
[1] = system: NMO mouse model, spines (cervical, thoracic and lumbar sections); experiment: Spine histopathology scores in NMO mouse model, blinded study (Example 3); format: in vivo, C57BL/6 mice; details: spines collected Day 18; for Demyelination (H + E) score +/− SD: hematoxylin and eosin stained section, 4 mice per cohort
Text: An NMO mouse model as described above was used. Spines were collected from 4 mice per treatment cohort on Day 18 and prepared for histology. Sections from cervical, thoracic and lumbar spine regions were scored and averaged. […] Bold formatting indicates significant (p<0.05) difference of treatment compared to PBS (control).

NMO mouse model = experiment: Mouse NMO model, more severe disease (25×10^6 Th17-polarized cells), disease scores, blinded study (Example 3); format: in vivo, C57BL/6 mice; details: for End Score (end disease score +/− SD): Day 17 post-transfer, AAT 2 mg or both i.p. daily Day 4 to Day 16; for End Score (end disease score +/− SD) / MMS +/− SD (mean maximum disease score) / Mean Day of Onset +/− SEM: Mpred 0.5 mg; for MMS +/− SD (mean maximum disease score) / Mean Day of Onset +/− SEM: AAT 2 mg or both i.p. daily Day 4 to Day 16 post-transfer; for Mean Day of Onset +/− SEM: 10 mice per cohort
Method: 25×10^6 cells prepared as above were adoptively transferred i.p. into recipient C57BL/6 mice. Mice received PBS, Mpred (0.5 mg), AAT (2 mg), or both AAT+Mpred as daily doses administered i.p. starting on Day 4 post-transfer until Day 16 post-transfer. Ten recipient mice per cohort. […] The bold p-values indicate significant (p<0.05) differences between the treatments when compared to PBS (control).

[2] = system: Neuromyelitis Optica (NMO) induced by the adoptive transfer of Th17 Experimental Autoimmune Encephalomyelitis (EAE) cells; experiment: NMO induced by adoptive transfer of Th17 EAE cells (15×10^6 cells), clinical scores (Example 1); format: in vivo, C57BL/6 mice; details: 2 mg A1AT in PBS i.p. daily day 5 to day 18; vs PBS; n=10 mice per group
Text: C57BL/6 donor mice were immunized via subcutaneous injection with MOG-35-55 peptide in complete Freund's Adjuvant. This induces Experimental Autoimmune Encephalomyelitis (EAE), an animal model for progressive multiple sclerosis. (Miller et al., Curr. Protoc. Immunol., Chapter Unit 15.1 (2007); incorporated herein by reference in its entirety). The mice were boosted […] via intraperitoneal injection with Pertussis toxin on day 0, 2, and 7 days post-immunization. Mice were sacrificed and spleens and lymph nodes collected and resuspended into single cell suspensions. Cells were cultured with MOG peptide and IL-23 to increase Th17 skewing and cultured for 3 days. Cells were harvested and approximately 15×10̂6 cells were adoptively transferred into recipient C57BL/6 mice via intraperitoneal injection. Starting day 5 for 2 weeks until day 18, mice were administered daily via intraperitoneal injection with 100 uL of PBS or A1AT (2 mg A1AT formulated in PBS). Clinical scores were measured each day at approximately the same time of day. Clinical scores measure ascending paralysis. A score of 1 is a limp tail. A score of 2 includes hind limb weakness. A score of 3 includes hind limb paralysis. A score of 4 includes forelimb weakness. A score of 5 is indicated by death. (See Miller et al.).

murine model of NMO = experiment: Murine model of NMO, less severe disease (12×10^6 Th17-polarized cells), disease score (Example 2); format: in vivo, C57BL/6 mice; details: FIG. 2
Method: Blood-derived human A1AT was compared to Sivelestat in a murine model of NMO. A less severe disease was induced when 12×10^6 Th17-polarized cells were adoptively transferred i.p. into recipient C57BL/6 mice. To induce Th17-polarized cells, C57BL/6 mice were induced with MOG35-55/CFA. 11 days later, their spleen cells were harvested and restimulated in culture with MOG35-55 peptide (Miller et al., supra) for 3 days.
Mice received PBS, Sivelestat (0.5 mg), or A1AT (2 mg) as daily doses administered i.p. starting on Day 5 post-transfer until Day 18 post-transfer. There were 10 recipient mice per cohort. Error bars represent SEM. Points where A1AT compared to PBS and mean disease scores were significant (p<0.05) are indicated (*).

[3] = system: spleen cells of Th17-polarized cell transplanted mice restimulated with MOG peptide; experiment: Ex vivo cytokine measurements from spleen cells restimulated with MOG peptide, cytokine bead assay (Example 4); format: in vivo
Method: Ex vivo cytokine measurements from spleen cells of Th17-polarized cell transplanted mice restimulated with MOG peptide were conducted to survey effector and memory recall responses of the immune cell compartment, primarily from T cells. Spleens were collected from 6 mice per treatment cohort on Day 18. Single cell suspensions were prepared and cultured with the indicated amounts of MOG35-55 peptide. Supernatants were collected after 3 days of culture and IL-17A, IFN-γ, IL-6, or IL-2 measured by cytokine bead assay (BD Biosciences, San Jose, Calif., Cat. No. 560485). The results in this blinded study were expressed in cytokine pg/mL+/−SEM.

Q: Which “Demyelination (H + E) score +/− SD” value [1] does the source give for `C[C@H]1C[C@@H]2[C@H]([C@@H](O)C[C@@]3(C)[C@H]2CC[C@]3(O)C(=O)CO)[C@@]2(C)C=CC(=O)C=C12` [Mpred, methylprednisolone, reference compound] here?
A: The value was 1.2 +/− 0.3.

Q: What about the “Apoptotic Cells +/− SD (apoptotic cell counts)” value ([1]; 4 mice per treatment cohort) of the same compound?
A: The value was 1.3 +/− 0.9.

Q: And the “Inflammatory foci +/− SD (number of inflammatory foci per section >20 cells)” value ([1]; 4 mice per treatment cohort)?
A: Its value is 3.0 +/− 0.9.

Q: And the “End Score (end disease score +/− SD)” value (NMO mouse model)?
A: The value was 2.25 +/− 0.42.

Q: What about the “MMS +/− SD (mean maximum disease score)” value (NMO mouse model) of the same compound?
A: Its value is 2.95 +/− 0.44.

Q: What about the “Mean Day of Onset +/− SEM” value (NMO mouse model) of the same compound?
A: Its value is 8.5 +/− 0.4.

Q: With alpha-1 antitrypsin [A1AT] as the compound, how does the “Clinical scores (ascending paralysis)” value [2] read?
A: Its value is “significant improvement when compared to PBS treatment”.

Q: What about the “Demyelination (H + E) score +/− SD” value [1] of the same compound?
A: Its value is 1.8 +/− 0.4.

Q: What about the “Apoptotic Cells +/− SD (apoptotic cell counts)” value ([1]; 4 mice per treatment cohort) of the same compound?
A: The value was 2.5 +/− 0.3.

Q: And the Onset of disease (murine model of NMO; A1AT 2 mg i.p. daily Day 5 to Day 18 post-transfer)?
A: The Onset of disease was “delay onset of disease”.

Q: And the NMO disease score (murine model of NMO; A1AT 2 mg or Sivelestat 0.5 mg i.p. daily Day 5 to Day 18 post-transfer, vs PBS)?
A: Its NMO disease score is “reduced the NMO disease score compared to PBS (control) and was superior to Sivelestat at all days of overt signs of disease”.

Q: And the IL-17A ([3]; spleens Day 18, 6 mice per cohort, supernatants after 3 days culture with MOG35-55, FIG. 5A)?
A: Its IL-17A is “decreased the inflammatory cytokines IL-17A compared to PBS and Mpred alone; also recorded: decreased the inflammatory cytokine IL-17A when compared to PBS and Mpred alone”.

Q: What about the IFN-γ ([3]; spleens Day 18, 6 mice per cohort, supernatants after 3 days culture with MOG35-55, FIG. 5B) of the same compound?
A: Its IFN-γ is “decreased the inflammatory cytokine IFN-γ when compared to Mpred alone”.

Q: What about the IL-2 ([3]; without antigenic restimulation (0 MOG peptide), compared to Mpred alone, FIG. 5D) of the same compound?
A: The IL-2 was “IL-2 levels were higher without antigenic restimulation (0 MOG peptide)”.

Q: What about the “End Score (end disease score +/− SD)” value (NMO mouse model) of the same compound?
A: The value was 3.10 +/− 0.57.

Q: And the “Mean disease scores over days measured” value (NMO mouse model; FIG. 3, 10 recipient mice per cohort, vs PBS or either treatment alone)?
A: The value was “early efficacy compared to Mpred alone and PBS (control) on Day 5 and 6 but afterwards did not show therapeutic effect”.

Q: What about the “MMS +/− SD (mean maximum disease score)” value (NMO mouse model) of the same compound?
A: Its value is 3.50 +/− 0.00.

Q: What about the “Mean Day of Onset +/− SEM” value (NMO mouse model) of the same compound?
A: Its value is 8.4 +/− 0.4.

Source: US20180050082A1, “SERPINS FOR THE TREATMENT OF NEUROINFLAMMATORY DISEASES” (Anvil Biosciences, LLC, priority 2015, published 2018)
